Among the data in ChEMBL document CHEMBL1938266, “A three-step protocol for lead optimization: quick identification of key conformational features and functional groups in the SAR studies of non-ATP competitive MK2 (MAPKAPK2) inhibitors” (Bioorg Med Chem Lett, 2012) are IC50 and EC50 values, retold here.

Each structure is given as a SMILES string.

Experiment [1] has as its target T1, MAP kinase-activated protein kinase 2 (Homo sapiens, UniProt P49137). Kind of experiment: Inhibition of human MK2.
The next experiment has as its system THP-1. Kind of experiment: Inhibition of LPS-stimulated TNFalpha production in human THP1 cells by ELISA. The class given is functional, cell-based. On the technique in general: In an ELISA, binding on a coated surface is turned into a signal by an enzyme label.
Experiment [2] concerns the target T1, MAP kinase-activated protein kinase 2. In words: Inhibition of MK2-mediated HSP27 phosphorylation by cell-based assay.

T1 sequence (P49137 whole entry): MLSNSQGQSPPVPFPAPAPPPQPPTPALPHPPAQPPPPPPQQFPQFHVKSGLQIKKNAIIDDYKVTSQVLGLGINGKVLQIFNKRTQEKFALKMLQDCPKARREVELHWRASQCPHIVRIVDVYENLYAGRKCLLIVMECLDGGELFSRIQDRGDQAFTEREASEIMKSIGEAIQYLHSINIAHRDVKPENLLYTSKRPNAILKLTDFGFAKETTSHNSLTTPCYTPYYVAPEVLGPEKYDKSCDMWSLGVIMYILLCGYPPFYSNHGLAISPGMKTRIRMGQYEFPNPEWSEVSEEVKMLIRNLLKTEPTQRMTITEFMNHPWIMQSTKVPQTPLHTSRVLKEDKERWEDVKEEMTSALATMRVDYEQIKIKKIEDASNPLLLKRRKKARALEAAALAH

As usually defined, the IC50 is the concentration that gives 50% inhibition. Turning to `Cc1cccc(C)c1-c1ccccc1CN(C(=O)c1ccc(-c2ccc(C#N)cc2)o1)c1ccc(N2CCNCC2)cc1`, in experiment [1] (read-out: IC50), the IC50 worked out at 258 nM. As usually defined, the EC50 is the concentration that produces a half-maximal response. As to `O=C(c1ccc(-c2ccc(Cl)cc2)o1)N(Cc1ccccn1)c1ccc(N2CCNCC2)cc1`, the figures for the EC50 (in the experiment with THP-1; in experiment [2]) were 5000 nM and 350 nM, respectively. The IC50 in experiment [1] (read-out: IC50) is 110 nM. Regarding `N#Cc1ccc(-c2ccc(C(=O)N(Cc3ccccn3)c3ccc(N4CCNCC4)cc3)o2)cc1`, in experiment [1] (read-out: IC50), the IC50 was found to be 115 nM.

`O=C(c1ccc(-c2ccc(Cl)cc2)o1)N(Cc1ccccn1)C1CCC(N2CCNCC2)CC1` (centres undefined): the IC50 in experiment [1] (read-out: IC50) came out at 4740 nM.

For the compound `CN1CCN(CCCN(Cc2ccccn2)C(=O)c2ccc(-c3ccc(C#N)cc3)o2)CC1`, in experiment [1] (read-out: IC50), the IC50 was 10000 nM. `N#Cc1ccc(-c2ccc(C(=O)N(Cc3ccccn3)C3CCNCC3)o2)cc1`: the IC50 in experiment [1] (read-out: IC50) was found to be 10000 nM. Still for that read-out and setting: for `Cc1cccc(CN(C(=O)c2ccc(-c3ccc(C#N)cc3)o2)c2ccc(N3CCNCC3)cc2)n1` the value was 79 nM.

Take `Cc1cccc(CN(C(=O)c2ccc(-c3ccc(Cl)cc3)o2)c2cccc(N3CCNCC3)c2)n1`: in experiment [1], the IC50 result was “Not Active”. Still for that read-out and setting: to `Cc1cccc(CN(C(=O)c2ccc(-c3ccc(Cl)cc3)o2)c2ccccc2N2CCNCC2)n1` belongs “Not Active”. Compound `N#Cc1ccc(-c2ccc(C(=O)N(Cc3ccc(-c4ccccc4)cc3)c3ccc(N4CCNCC4)cc3)o2)cc1` gave an EC50 in the experiment on THP-1 of 6690 nM. Besides, in experiment [1] (read-out: IC50), the IC50 came out at 41 nM. In the same order, the values of `N#Cc1ccc(-c2ccc(C(=O)N(Cc3cccc(-c4ccccc4)c3)c3ccc(N4CCNCC4)cc3)o2)cc1` are 28100 nM and 70 nM. In the same order, the values of `N#Cc1ccc(-c2ccc(C(=O)N(Cc3ccccc3-c3ccccc3)c3ccc(N4CCNCC4)cc3)o2)cc1` are 3460 nM and 9 nM. In the case of `N#Cc1ccc(-c2ccc(C(=O)N(Cc3ccc(-c4ccccc4F)cc3)c3ccc(N4CCNCC4)cc3)o2)cc1`, the IC50 in experiment [1] (read-out: IC50) worked out at 1920 nM. The same measure, in the same setting: for `N#Cc1ccc(-c2ccc(C(=O)N(Cc3cccc(-c4ccccc4F)c3)c3ccc(N4CCNCC4)cc3)o2)cc1` the value was 1450 nM; for `N#Cc1ccc(-c2ccc(C(=O)N(Cc3ccccc3-c3ccccc3F)c3ccc(N4CCNCC4)cc3)o2)cc1`, 12 nM. Turning to `N#Cc1ccc(-c2ccc(C(=O)N(Cc3ccc(-c4ccncc4)cc3)c3ccc(N4CCNCC4)cc3)o2)cc1`, in experiment [1] (read-out: IC50), the IC50 came to 128 nM. Turning to `N#Cc1ccc(-c2ccc(C(=O)N(Cc3cccc(-c4ccncc4)c3)c3ccc(N4CCNCC4)cc3)o2)cc1`, the IC50 in experiment [1] (read-out: IC50) is 110 nM. As for `N#Cc1ccc(-c2ccc(C(=O)N(Cc3ccccc3-c3ccncc3)c3ccc(N4CCNCC4)cc3)o2)cc1`, a half-maximal response in the experiment on THP-1 (EC50) required 8400 nM. For the same compound, in experiment [1] (read-out: IC50), the IC50 was 12 nM. As to `Cc1ccccc1-c1ccccc1CN(C(=O)c1ccc(-c2ccc(C#N)cc2)o1)c1ccc(N2CCNCC2)cc1`, the IC50 in experiment [1] (read-out: IC50) came to 285 nM.

`Cc1noc(C)c1-c1ccccc1CN(C(=O)c1ccc(-c2ccc(C#N)cc2)o1)c1ccc(N2CCNCC2)cc1`: a half-maximal effect in the experiment with THP-1 (EC50) was put at 1770 nM. Also, the IC50 in experiment [1] (read-out: IC50) was found to be 21 nM. With `N#Cc1ccc(-c2ccc(C(=O)N(Cc3ccccc3-c3ccc(C#N)cc3)c3ccc(N4CCNCC4)cc3)o2)cc1`, the EC50 in the experiment with THP-1 was 2950 nM. Further, the IC50 in experiment [1] (read-out: IC50) turned out to be 8 nM. `N#Cc1ccc(-c2ccc(C(=O)N(Cc3ccccc3-c3cccc(C#N)c3)c3ccc(N4CCNCC4)cc3)o2)cc1` displayed an EC50 in the experiment with THP-1 of 1590 nM. Further, the IC50 in experiment [1] (read-out: IC50) came to 19 nM. On to `COc1cccc(-c2ccccc2CN(C(=O)c2ccc(-c3ccc(C#N)cc3)o2)c2ccc(N3CCNCC3)cc2)c1`, for which the IC50 in experiment [1] (read-out: IC50) stood at 12 nM. In the experiment with THP-1, `N#Cc1ccc(-c2ccc(C(=O)N(Cc3ccccc3-c3cccnc3)c3ccc(N4CCNCC4)cc3)o2)cc1` came in with an EC50 of 1240 nM. In addition, the IC50 in experiment [1] (read-out: IC50) came out at 9 nM. In the same order, the values of `N#Cc1ccc(-c2ccc(C(=O)N(Cc3ccccc3-c3ccccn3)c3ccc(N4CCNCC4)cc3)o2)cc1` are 2540 nM and 14 nM.

`N#Cc1ccc(-c2ccc(C(=O)N(Cc3ccccc3-c3cncnc3)c3ccc(N4CCNCC4)cc3)o2)cc1` showed an EC50 with THP-1 of 880 nM. The IC50 in experiment [1] (read-out: IC50) came to 27 nM.

In the experiment on THP-1, `COc1cncc(-c2ccccc2CN(C(=O)c2ccc(-c3ccc(C#N)cc3)o2)c2ccc(N3CCNCC3)cc2)c1` returned an EC50 of 1800 nM. In experiment [1] (read-out: IC50), the IC50 amounted to 20 nM. In the same order, the values of `COc1ccncc1-c1ccccc1CN(C(=O)c1ccc(-c2ccc(C#N)cc2)o1)c1ccc(N2CCNCC2)cc1` are 310 nM and 8 nM. In the case of `COc1ccc(-c2ccccc2CN(C(=O)c2ccc(-c3ccc(C#N)cc3)o2)c2ccc(N3CCNCC3)cc2)cn1`, the IC50 in experiment [1] (read-out: IC50) was 43 nM.

With `COc1cc(-c2ccccc2CN(C(=O)c2ccc(-c3ccc(C#N)cc3)o2)c2ccc(N3CCNCC3)cc2)ccn1`, the IC50 in experiment [1] (read-out: IC50) was found to be 24 nM.

For `COc1ncc(-c2ccccc2CN(C(=O)c2ccc(-c3ccc(C#N)cc3)o2)c2ccc(N3CCNCC3)cc2)cn1`, the IC50 in experiment [1] (read-out: IC50) was determined as 52 nM. In the case of `COc1ccccc1-c1ccccc1CN(C(=O)c1ccc(-c2ccc(C#N)cc2)o1)c1ccc(N2CCNCC2)cc1`, in the experiment with THP-1, the 50% effective concentration (EC50) is 1960 nM. Moreover, the IC50 in experiment [1] (read-out: IC50) is 20 nM.

The compound `COc1ccccc1-c1ncccc1CN(C(=O)c1ccc(-c2ccc(C#N)cc2)o1)c1ccc(N2CCNCC2)cc1` gave an EC50 in the experiment with THP-1 of 734 nM. In addition, in experiment [1] (read-out: IC50), the IC50 worked out at 12 nM. In the same order, the values of `COc1ccncc1-c1ncccc1CN(C(=O)c1ccc(-c2ccc(C#N)cc2)o1)c1ccc(N2CCNCC2)cc1` are 1590 nM and 9 nM. As for `N#Cc1ccc(-c2ccc(C(=O)N(Cc3cccnc3-c3cncnc3)c3ccc(N4CCNCC4)cc3)o2)cc1`, in experiment [1] (read-out: IC50), the IC50 stood at 100 nM. Still for that read-out and setting: for `N#Cc1ccc(-c2ccc(C(=O)N(Cc3ccccc3-c3ccccc3)c3ccc(N4CCNCC4)cc3)o2)cn1` the value was 258 nM; for `N#Cc1ccc(-c2ccc(C(=O)N(Cc3ccccc3-c3cccnc3)c3ccc(N4CCNCC4)cc3)o2)cn1`, 177 nM.
